According to article PMC5247654, “Structural Mechanism Underpinning Cross-reactivity of a CD8^+ T-cell Clone That Recognizes a Peptide Derived from Human Telomerase Reverse Transcriptase” (The Journal of Biological Chemistry, 2016):
Read-outs that look alike come from different tables or passages of the source.

Legend:
[1] = pMHC thermal stability by circular dichroism; type: physicochemical; settings: CD thermal denaturation at 218 nm, PBS, ∼3 μM, 0.1-cm cell, two-state trimer-to-monomer fit
Method: Thermal stability of the HLA-A*0201-peptide complexes was assessed by circular dichroism spectroscopy, monitoring the change in ellipticities at 218 nm upon heating as described ([31]). Briefly, samples were prepared in PBS at a concentration of ∼3 μM and measured in 0.1-cm quartz cells. Melting curves were analyzed assuming a two-state trimer-to-monomer transition from the native to unfolded conformation and fitted as described ([43]). As all protein complexes aggregated to various degrees upon unfolding, the ellipticity of the unfolded state was set as a constant of −1.35 M^−1 cm^−1 ([44]).

[2] = test system: ILA1 TCR; settings: SPR, cited from earlier work; for Kd: equilibrium binding
[3] = test system: ILA1 TCR; assay: Surface plasmon resonance binding of ILA1 TCR to HLA-A*0201-ILA peptide variants; set-up: species or system human; settings: 25 °C; for Kd: equilibrium binding, SPR, serial dilutions in duplicate, three independent experiments
Method: Binding analysis was performed in duplicate using a BIAcoreT200^TM equipped with a CM5 sensor chip as described previously ([45]). Approximately 200–500 response units of HLA-A*0201-[…] or HLA-A*0201-[…] peptide complex was attached to the CM5 sensor chip at a slow flow rate of 10 μl/min to ensure uniform distribution on the chip surface. […] For equilibrium analysis, 10 serial dilutions were prepared in duplicate for each sample and injected over the relevant sensor chips at 25 °C. TCR was injected over the chip surface using kinetic injections at a flow rate of 45 μl/min using HLA-A*0201-[…] as a negative control surface on flow cell 1. Results were analyzed using BIAevaluation^TM 3.1, Excel, and Origin 6.0 software. The equilibrium dissociation constant (KD) values were calculated assuming a 1:1 interaction by plotting specific equilibrium binding responses against protein concentrations followed by non-linear least square fitting of the Langmuir binding equation. For kinetics analysis, the kon and koff values were calculated assuming 1:1 Langmuir binding, and the data were analyzed using a global fit algorithm (BIAevaluation 3.1).

[4] = target: altered peptide ligand of human telomerase reverse transcriptase 540-548 (A2-ILA8R) peptide on HLA-A*02:01 (human); assay: SPR, equilibrium binding at 25 °C, new data of this article; kinetics n/m (too fast to measure); much weaker than the index A2-ILA ([…] μM); soluble, other
[5] = target: altered peptide ligand of human telomerase reverse transcriptase 540-548 peptide on HLA-A*02:01 (human); assay: SPR, equilibrium binding; data from (17); soluble, other
[6] = target: altered peptide ligand of human telomerase reverse transcriptase 540-548 peptide on HLA-A*02:01 (human); assay: SPR, equilibrium binding; kinetics n/m (too fast to measure); data from (39); soluble, other
[7] = target: human telomerase reverse transcriptase peptide on HLA-A*02:01 (human); assay: van 't Hoff analysis of SPR affinities at 5-37 °C; soluble, other
[8] = target: altered peptide ligand of human telomerase reverse transcriptase 540-548 peptide on HLA-A*02:01 (human); assay: SPR, equilibrium binding; data from (17); soluble, other; remark: listed apart in the source
[9] = target: altered peptide ligand of human telomerase reverse transcriptase 540-548 peptide on HLA-A*02:01 (human); assay: SPR, equilibrium binding; kinetics n/m (too fast to measure); data from (39); soluble, other; remark: listed apart in the source
[10] = target: altered peptide ligand of human telomerase reverse transcriptase 540-548 (A2-ILA8E) peptide on HLA-A*02:01 (human); assay: SPR, equilibrium binding; kinetics n/m; data from (39); extremely weak against the index A2-ILA ([…] μM); soluble, other
[11] = target: altered peptide ligand of human telomerase reverse transcriptase 540-548 (A2-ILA8T) peptide on HLA-A*02:01 (human); assay: SPR, equilibrium binding; data from (39); soluble, other
[12] = target: altered peptide ligand of human telomerase reverse transcriptase 540-548 peptide on HLA-A*02:01 (human); assay: SPR, equilibrium binding; data from (16); soluble, other
[13] = target: altered peptide ligand of human telomerase reverse transcriptase 540-548 (A2-ILA3G8R) peptide on HLA-A*02:01 (human); assay: SPR, equilibrium binding at 25 °C, new data of this article; soluble, other
[14] = SPR BIAcore T200, ILA1 TCR injected over immobilised pMHC, 1:1 Langmuir global fit

Substance	apparent Tm (melting temperature) [1] [°C]	koff [2] [s⁻¹]	kon [2] [M⁻¹ s⁻¹]	Kd [2] [µM]	further results
ILAKFLHWL	54.5	–	–	–	–
ILGKFLHWL	49.8	0.05	16000	3.7 ± 0.2	–
ILAKFLHYL	–	–	–	22.6 ± 2.1	–
ILGKFLHRL	55.9	–	–	–	koff [3, 14]: 0.16 s⁻¹; kon [3, 14]: 30000 M⁻¹ s⁻¹; Kd [3]: 1 ± 0.1 µM
ILAKFLYWL	–	–	–	82 ± 8	–
ILGKFLHTL	55.6	0.05	19500	2.5 ± 0.5	–
ILAKFLHEL	58.8	–	–	> 500	–
ILA1 TCR	–	–	–	–	Kd [4]: 151 µM; Kd [5]: 242 µM; Kd [6]: 22.6 µM; TΔS [7]: 5.86 kcal/mol; Kd [8]: 2.5 µM; Kd [9]: 82 µM; Kd [10]: > 500 µM; Kd [11]: 28 µM; Kd [12]: 117 µM; Kd [13]: 1 µM
ILAKFLHTL	58.7	0.08	2200	28 ± 5	–
ILAKYLHWL	–	0.32	1300	242 ± 20	–
ILAKFLHRL	60.9	–	–	–	Kd [3]: 151 ± 8 µM
ILALFLHWL	–	0.2	1700	117 ± 6	–
